# Patent publication US20100056524A1, “Compound” (priority 2008, published 2010)
# Where a name gives a salt, the structure may show the parent alone. Read-outs that look alike come from different tables or passages of the source.
# Legend:
# TBK1 = target: T1, TBK1 (Homo sapiens, UniProt Q9UHD2); assay: TBK1 protein kinase assay ([γ-33P]ATP, P81 filterplates); assay type: biochemical
# T1 construct: All protein kinases were of human origin and encoded full length proteins, unless indicated otherwise; His6; made in house; host or cells: insect Sf21 cells
# T1 sequence (Q9UHD2 1-729): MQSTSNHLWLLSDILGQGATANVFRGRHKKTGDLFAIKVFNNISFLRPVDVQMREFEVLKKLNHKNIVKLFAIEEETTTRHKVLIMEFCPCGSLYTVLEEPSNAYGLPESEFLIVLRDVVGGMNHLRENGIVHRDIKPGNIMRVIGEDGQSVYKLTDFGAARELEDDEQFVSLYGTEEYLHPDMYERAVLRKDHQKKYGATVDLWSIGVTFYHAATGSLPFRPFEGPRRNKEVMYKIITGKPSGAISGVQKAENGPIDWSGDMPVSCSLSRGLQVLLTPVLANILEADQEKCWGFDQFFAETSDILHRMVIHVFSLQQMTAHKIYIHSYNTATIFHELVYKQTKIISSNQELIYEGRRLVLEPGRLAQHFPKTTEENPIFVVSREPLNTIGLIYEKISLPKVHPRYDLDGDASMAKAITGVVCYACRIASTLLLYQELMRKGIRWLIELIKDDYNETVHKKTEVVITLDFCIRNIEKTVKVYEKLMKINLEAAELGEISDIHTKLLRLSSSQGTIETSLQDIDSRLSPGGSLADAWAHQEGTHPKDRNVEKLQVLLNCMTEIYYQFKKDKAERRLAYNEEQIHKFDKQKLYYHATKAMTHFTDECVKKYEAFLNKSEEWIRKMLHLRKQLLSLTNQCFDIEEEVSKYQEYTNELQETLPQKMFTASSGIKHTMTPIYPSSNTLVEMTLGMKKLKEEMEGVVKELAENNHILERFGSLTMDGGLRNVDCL
# How it was run: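 Human TBK1 assayed for 30 min with peptide substrate (300 μM), 50 μM [γ-33P]ATP and 10 mM magnesium acetate in 50 mM Tris/HCl pH 7.5, 0.1 mM EGTA, 0.1% 2-mercaptoethanol. Stopped with orthophosphoric acid and counted on P81 filters. IC50 from 10 compound concentrations.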
# S6K1 = target: T2, S6K1 (Homo sapiens, UniProt P23443, T412E); assay: S6K1 protein kinase assay; assay type: biochemical; details: for remaining activity at 10 µM: 10 μM compound; for residual kinase activity S6K1: 1 μm compound; for remaining activity at 1 µM: 1 μM compound
# T2 construct: All protein kinases were of human origin and encoded full length proteins, unless indicated otherwise; made in house
# Source text: (§1) All protein kinases were of human origin and encoded full length proteins, unless indicated otherwise. They were either expressed as glutathione S-transferase (GST) fusion proteins in Escherichia Coli or as hexahistidine (His6)-tagged proteins in insect Sf21 cells. GST fusion proteins were purified by affinity chromatography on glutathione-Sepharose, and His6-tagged proteins on nickel/nitriloacetate-agarose. The procedures for expressing some of the protein kinases used herein have been detailed previously.^8,9 The following sections outline the DNA vectors synthesised and the procedures used to express and purifying protein kinases that have not been reported previously.
# (§2) All assays (25.5 μl) were carried out at room temperature (21° C.) and were linear with respect to time and enzyme concentration under the conditions used. Assays were performed for 30 min using Multidrop Micro reagent dispensers (Thermo Electron Corporation, Waltham, Mass. 02454, USA) in a 96-well format. The concentration of magnesium acetate in the assays was 10 mM and the [γ-33P] ATP (800 cpm/pmol) was used at 5, 20 or 50 μM as indicated, in order to be at or below the Km for ATP for each enzyme. Protein kinases assayed at 5 μM ATP were: —ERK1, ERK8, PKBα, MARK3, Aurora C. Protein kinases assayed at 20 μM ATP were: —JNK1, PDK1, CHK1, CHK2, CDK2 and Aurora B. Protein kinases assayed at 50 μM ATP were: —MNK2, IKKepsilon and TBK1.
# (§3) The assays were initiated with MgATP, stopped by addition of 5 μl of 0.5 M orthophosphoric acid and spotted on to P81 filterplates using a unifilter harvester (PerkinElmer, Boston, Mass. 02118, USA). The IC50 values of inhibitors were determined after carrying out assays at 10 different concentrations of each compound.
# (§4) Unless stated otherwise, enzymes were diluted in 50 mM Tris/HCl pH 7.5, 0.1 mM EGTA, 1 mg/ml BSA, 0.1% (v/v) 2-mercaptoethanol and assayed in 50 mM Tris/HCl pH 7.5, 0.1 mM EGTA, 0.1% (v/v) 2-mercaptoethanol.
# CK1 = CK1 protein kinase assay; assay type: biochemical, human; details: for residual kinase activity: CK1
# Source text: as §1, §2, §3, §4
# PAK5 = target: T3, PAK5 (Homo sapiens, UniProt Q9P286); assay: PAK5 protein kinase assay; assay type: biochemical; details: for remaining activity at 10 µM: 10 μM compound; for residual kinase activity PAK5: 1 μm compound; for remaining activity at 1 µM: 1 μM compound
# T3 construct: All protein kinases were of human origin and encoded full length proteins, unless indicated otherwise; made in house
# Source text: as §1, §2, §3, §4
# MST4 = target: T4, MST4 (Homo sapiens, UniProt Q9P289); assay: MST4 protein kinase assay; assay type: biochemical; details: for remaining activity at 10 µM: 10 μM compound; for residual kinase activity MST4: 1 μm compound; for remaining activity at 1 µM: 1 μM compound
# T4 construct: All protein kinases were of human origin and encoded full length proteins, unless indicated otherwise; made in house
# Source text: as §1, §2, §3, §4
# [1] = read-out: residual kinase activity S6K1
# [2] = read-out: residual kinase activity PAK5
# [3] = read-out: residual kinase activity MST4
# [4] = 50 μM ATP, read-out: Potency (TBK1 IC50 potency score)
# [5] = Table 2, 50 μM ATP, read-out: TBK1 IC50
# [6] = S6K1, read-out: residual kinase activity
# [7] = PAK5, read-out: residual kinase activity
# [8] = MST4, read-out: residual kinase activity
# T3 sequence (Q9P286 425-719 limits assumed): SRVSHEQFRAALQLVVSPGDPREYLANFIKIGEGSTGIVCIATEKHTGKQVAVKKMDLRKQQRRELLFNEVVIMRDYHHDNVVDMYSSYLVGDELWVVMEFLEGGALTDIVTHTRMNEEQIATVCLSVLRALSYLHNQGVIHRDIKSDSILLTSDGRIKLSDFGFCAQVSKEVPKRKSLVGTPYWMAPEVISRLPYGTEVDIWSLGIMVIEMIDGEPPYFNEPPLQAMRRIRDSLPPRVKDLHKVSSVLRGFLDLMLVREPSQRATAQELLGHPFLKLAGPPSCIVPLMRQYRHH
# T2 sequence (P23443 1-421 T412E limits assumed): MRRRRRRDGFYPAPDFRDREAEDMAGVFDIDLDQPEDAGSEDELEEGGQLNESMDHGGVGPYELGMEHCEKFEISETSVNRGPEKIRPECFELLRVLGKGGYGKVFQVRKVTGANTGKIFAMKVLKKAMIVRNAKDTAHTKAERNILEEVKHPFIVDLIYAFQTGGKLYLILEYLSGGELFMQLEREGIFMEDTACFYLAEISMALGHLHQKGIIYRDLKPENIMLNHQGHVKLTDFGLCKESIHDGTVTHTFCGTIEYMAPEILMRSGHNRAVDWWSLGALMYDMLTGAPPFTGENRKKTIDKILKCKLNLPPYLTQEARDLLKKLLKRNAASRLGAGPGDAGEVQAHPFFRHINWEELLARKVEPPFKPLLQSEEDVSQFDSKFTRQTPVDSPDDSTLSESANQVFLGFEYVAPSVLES
# T4 sequence (Q9P289 whole entry): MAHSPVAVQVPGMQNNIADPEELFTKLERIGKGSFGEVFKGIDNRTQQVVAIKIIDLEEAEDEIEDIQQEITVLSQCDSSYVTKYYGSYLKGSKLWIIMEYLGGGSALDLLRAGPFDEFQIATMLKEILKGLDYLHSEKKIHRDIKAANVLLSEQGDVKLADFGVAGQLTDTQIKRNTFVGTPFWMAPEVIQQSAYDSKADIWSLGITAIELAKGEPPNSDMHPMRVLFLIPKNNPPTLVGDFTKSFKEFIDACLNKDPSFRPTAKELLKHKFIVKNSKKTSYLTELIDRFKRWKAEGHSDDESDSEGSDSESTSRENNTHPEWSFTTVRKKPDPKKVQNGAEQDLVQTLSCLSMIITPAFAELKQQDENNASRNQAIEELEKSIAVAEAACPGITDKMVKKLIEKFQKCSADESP
SMILES,IC50 (TBK1; read-out: TBK1 IC50) [nM],remaining activity at 10 µM (S6K1; [1]) [%],residual kinase activity S6K1 (S6K1) [%],residual kinase activity CK1 (CK1; 10 μM compound) [%],residual kinase activity CK1 (CK1; 1 μm compound) [%],remaining activity at 10 µM (PAK5; [2]) [%],residual kinase activity PAK5 (PAK5) [%],remaining activity at 10 µM (MST4; [3]) [%],residual kinase activity MST4 (MST4) [%],IC50 (TBK1; [4]) [nM],IC50 (TBK1; [5]) [nM],remaining activity at 1 µM (S6K1; [6]) [%],remaining activity at 10 µM (S6K1; [6]) [%],residual kinase activity (CK1; 1 μM compound) [%],residual kinase activity (CK1; 10 μM compound) [%],remaining activity at 1 µM (PAK5; [7]) [%],remaining activity at 10 µM (PAK5; [7]) [%],remaining activity at 1 µM (MST4; [8]) [%],remaining activity at 10 µM (MST4; [8]) [%],further results
"O=C(NCCCNc1nc(Nc2cccc(F)c2)ncc1Br)C1CCC1 [Compound A, cyclobutanecarboxylic acid {3-[5-bromo-2-(3-fluoro-phenylamino)-pyrimidin-4-ylamino]-propyl}-amide, reference compound]",2,13,49,50,91,14,46,47,90,,,,,,,,,,,
"O=C(NCCCNc1nc(Nc2cccc(F)c2)ncc1C1CC1)C1CCC1 [Example 23, Cyclobutanecarboxylic acid {3-[5-cyclopropyl-2-(3-fluoro-phenylamino)-pyrimidin-4-ylamino]-propyl}-amide]",4,30,38,64,93,56,74,56,94,< 100,4,38,30,93,64,74,56,94,56,"IC50 (TBK1; Table 5, 50 μM ATP, read-out: TBK1 IC50): 4 nM; fold more active against TBK1 than Compound B or Compound C (TBK1; from TBK1 IC50 values of Table 5): > 250 fold"
"O=C(NCCCNc1nc(Nc2cccc(N3CCCC3=O)c2)ncc1C1CC1)c1cccs1 [Example 47, Thiophene-2-carboxylic acid (3-{5-cyclopropyl-2-[3-(2-oxo-pyrrolidin-1-yl)-phenylamino]-pyrimidin-4-ylamino}-propyl)-amide. Hydrochloride salt]",,,,,,,,,,,,63,30,102,106,69,68,124,111,
"O=C(NCCCNc1nc(Nc2cccnc2)ncc1C1CC1)c1cccs1 [Example 50, Thiophene-2-carboxylic acid {3-[5-cyclopropyl-2-(pyridin-3-ylamino)-pyrimidin-4-ylamino]-propyl}-amide]",,,,,,,,,,100 to 1000,108,63,30,107,82,73,47,164,120,
